The source of these data is paper PMC11995724, “Antibiotic target discovery by integrated phenotypic and activity-based profiling of electrophilic fragments” (Cell chemical biology, 2025).

Molecules are shown by their SMILES.

The nature of the data set: in vitro. The settings on record: human, hek293t cells.
On to `C=CC(=O)NCc1cc(C(F)(F)C(F)(F)F)on1` [3-B19, N-{[5-(1,1,2,2,2-pentafluoroethyl)-1,2-oxazol-3-yl]methyl}prop-2-enamide], for which the viability at 48 h, 25 µM stood at 48.4%.
As for `C=CC(=O)NCc1noc2c1CCCC2` [3-B20, N-[(4,5,6,7-tetrahydro-1,2-benzoxazol-3-yl)methyl]prop-2-enamide], the figure is 74.4%.
As for `C=CC(=O)NCCNC(=O)c1cc2ccccc2[nH]1` [3-B21, N-{2-[(1H-indol-2-yl)formamido]ethyl}prop-2-enamide], the figure is 63.1%.
Under `C=CC(=O)N1CCc2nn(C(C)C)c(=O)cc2C1` [3-B22, 6-(prop-2-enoyl)-2-(propan-2-yl)-2H,3H,5H,6H,7H,8H-pyrido[4,3-c]pyridazin-3-one] stands 87.7%; under `C=CC(=O)N1CCC(n2cnc3ccccc3c2=O)C1` (centres unmarked) [3-C03, 3-[1-(prop-2-enoyl)pyrrolidin-3-yl]-3,4-dihydroquinazolin-4-one], 63.6%.
For the compound `C=CC(=O)N(C)CC(=O)N1CCc2cc(OC)c(OC)cc2C1C` (centres unmarked) [3-C04, N-[2-(6,7-dimethoxy-1-methyl-1,2,3,4-tetrahydroisoquinolin-2-yl)-2-oxoethyl]-N-methylprop-2-enamide], the viability at 48 h, 25 µM was determined as 84.6%.
Consider `C=CC(=O)NCc1nc(-c2ccccc2)oc1C` [3-C05, N-[(5-methyl-2-phenyl-1,3-oxazol-4-yl)methyl]prop-2-enamide], for which the viability at 48 h, 25 µM worked out at 50.4%.
As for `C=CC(=O)N1CCC(C(=O)Nc2ccccc2NS(C)(=O)=O)CC1` [3-C06, N-(2-methanesulfonamidophenyl)-1-(prop-2-enoyl)piperidine-4-carboxamide], the figure is 82.7%; as for `C=CC(=O)N1CCC(C(=O)NC2CC2(C)C)CC1` (centres unmarked) [3-C07, N-(2,2-dimethylcyclopropyl)-1-(prop-2-enoyl)piperidine-4-carboxamide], 30.9%.
Under `C=CC(=O)N1CCn2c(nnc2C2CCCC2)C1` [3-C09, 1-{3-cyclopentyl-5H,6H,7H,8H-[1,2,4]triazolo[4,3-a]pyrazin-7-yl}prop-2-en-1-one] stands 29.4%; under `C=CC(=O)Nc1ccc(C(=O)NC2CCN(C(C)C)C2=O)cc1` (centres unmarked) [3-C10, N-[2-oxo-1-(propan-2-yl)pyrrolidin-3-yl]-4-(prop-2-enamido)benzamide], 60.6%; under `C=CC(=O)NC(C)Cn1cncn1` (centres unmarked) [3-C11, N-[1-(1H-1,2,4-triazol-1-yl)propan-2-yl]prop-2-enamide], 37.9%.
Regarding `C=CC(=O)NCCC1CCCS1(=O)=O` (centres unmarked) [3-C12, N-[2-(1,1-dioxo-1lambda6-thiolan-2-yl)ethyl]prop-2-enamide], the viability at 48 h, 25 µM came out at 86.1%.
Under `C=CC(=O)N1CCOC(Cn2nc(C)cc2C)C1` (centres unmarked) [3-C13, 1-{2-[(3,5-dimethyl-1H-pyrazol-1-yl)methyl]morpholin-4-yl}prop-2-en-1-one] stands 40.5%.
As for `C=CC(=O)N[C@H]1C[C@H](C)S(=O)(=O)c2sccc21` [3-C14, N-[(2S,4S)-2-methyl-1,1-dioxo-2H,3H,4H-1lambda6-thieno[2,3-b]thiopyran-4-yl]prop-2-enamide], the figure is 84.1%; as for `C=CC(=O)N1CCC(C(=O)NCc2nnc(C(C)C)n2C)CC1` [3-C16, N-{[4-methyl-5-(propan-2-yl)-4H-1,2,4-triazol-3-yl]methyl}-1-(prop-2-enoyl)piperidine-4-carboxamide], 78.5%.
As for `C=CC(=O)N1CCC(C(=O)N2CCC(C(=O)NCC(C)C)CC2)CC1` [3-C17, N-(2-methylpropyl)-1-[1-(prop-2-enoyl)piperidine-4-carbonyl]piperidine-4-carboxamide], the figure is 34.6%; as for `C=CC(=O)N1CCC(C(=O)NCCO)CC1` [3-C18, N-(2-hydroxyethyl)-1-(prop-2-enoyl)piperidine-4-carboxamide], 72.9%; as for `C=CC(=O)N1CCC(C(=O)N2Cc3ccccc3C[C@H]2C(N)=O)CC1` [3-C19, (3S)-2-[1-(prop-2-enoyl)piperidine-4-carbonyl]-1,2,3,4-tetrahydroisoquinoline-3-carboxamide], 29.6%.
In the case of `C=CC(=O)N(C)CC(=O)N1CCCC(CC(N)=O)CC1` (centres unmarked) [3-C20, N-{2-[4-(carbamoylmethyl)azepan-1-yl]-2-oxoethyl}-N-methylprop-2-enamide], the viability at 48 h, 25 µM was found to be 68.6%.
As for `C=CC(=O)NCCNS(=O)(=O)c1cc(C)sc1C` [3-C21, N-[2-(2,5-dimethylthiophene-3-sulfonamido)ethyl]prop-2-enamide], the figure is 34.6%.
Under `C=CC(=O)NCc1cnoc1C` [3-C22, N-[(5-methyl-1,2-oxazol-4-yl)methyl]prop-2-enamide] stands 51.5%; under `C=CC(=O)N(CC)CC(=O)N1CCN(c2ccc(C#N)cc2F)CC1` [3-D03, N-{2-[4-(4-cyano-2-fluorophenyl)piperazin-1-yl]-2-oxoethyl}-N-ethylprop-2-enamide], 74.4%; under `C=CC(=O)NCc1nc(-c2ccc(F)cc2)n[nH]1` [3-D04, N-{[3-(4-fluorophenyl)-1H-1,2,4-triazol-5-yl]methyl}prop-2-enamide], 95.1%.
As for `C=CC(=O)Nc1cc(NC(=O)C2(OC)CCOC2)ccc1F` (centres unmarked) [3-D05, N-[4-fluoro-3-(prop-2-enamido)phenyl]-3-methoxyoxolane-3-carboxamide], the figure is 75.8%; as for `C=CC(=O)Nc1cn(CC(F)(F)F)nc1C` [3-D06, N-[3-methyl-1-(2,2,2-trifluoroethyl)-1H-pyrazol-4-yl]prop-2-enamide], 55.3%.
As for `C=CC(=O)NCCC(=O)N1CCN(c2ccc(C#N)cc2F)CC1` [3-D07, N-{3-[4-(4-cyano-2-fluorophenyl)piperazin-1-yl]-3-oxopropyl}prop-2-enamide], the viability at 48 h, 25 µM worked out at 56.6%.
For the compound `C=CC(=O)NCCC(=O)NC1CCSc2ccc(F)cc21` (centres unmarked) [3-D08, N-{2-[(6-fluoro-3,4-dihydro-2H-1-benzothiopyran-4-yl)carbamoyl]ethyl}prop-2-enamide], the viability at 48 h, 25 µM was 70.7%.
With `C=CC(=O)NCc1cn(C2CCC2)nn1` [3-D09, N-[(1-cyclobutyl-1H-1,2,3-triazol-4-yl)methyl]prop-2-enamide], the viability at 48 h, 25 µM worked out at 48.7%.
Under `C=CC(=O)NC(C)Cn1cc(C(=O)O)cn1` (centres unmarked) [3-D10, 1-[2-(prop-2-enamido)propyl]-1H-pyrazole-4-carboxylic acid] stands 96%.
Turning to `C=CC(=O)N(C)CC1(O)CCc2ccccc21` (centres unmarked) [3-D11, N-[(1-hydroxy-2,3-dihydro-1H-inden-1-yl)methyl]-N-methylprop-2-enamide], the viability at 48 h, 25 µM stood at 58.6%.
Under `C=CC(=O)N1CCC(C(=O)NCc2cn3ccc(C)nc3n2)CC1` [3-D12, N-({7-methylimidazo[1,2-a]pyrimidin-2-yl}methyl)-1-(prop-2-enoyl)piperidine-4-carboxamide] stands 75.3%; under `C#CCN(C(=O)c1ccc(NC(=O)C=C)cc1)C1CCCCC1` [3-D13, N-cyclohexyl-4-(prop-2-enamido)-N-(prop-2-yn-1-yl)benzamide], 15.9%; under `C=CC(=O)NCc1ccc2oc(=O)[nH]c2c1` [3-D14, N-[(2-oxo-2,3-dihydro-1,3-benzoxazol-5-yl)methyl]prop-2-enamide], 103%.
As for `C=CC(=O)N(C)CC(=O)N1CCCc2ccccc21` [3-D15, N-methyl-N-[2-oxo-2-(1,2,3,4-tetrahydroquinolin-1-yl)ethyl]prop-2-enamide], the figure is 65.7%; as for `C=CC(=O)Nc1cccc(NS(=O)(=O)C2CC2)c1` [3-D16, N-(3-cyclopropanesulfonamidophenyl)prop-2-enamide], 80.5%; as for `C=CC(=O)N1CCCC(S(=O)(=O)NC)C1` (centres unmarked) [3-D17, N-methyl-1-(prop-2-enoyl)piperidine-3-sulfonamide], 67.5%.
With `C=CC(=O)N[C@H]1C[C@H](S(C)(=O)=O)C1` [3-D18, N-[(1r,3r)-3-methanesulfonylcyclobutyl]prop-2-enamide], the viability at 48 h, 25 µM worked out at 83.6%.
Under `C=CC(=O)N1CCC=C(c2cn(C(C)C)nn2)CC1` [3-D19, 1-{4-[1-(propan-2-yl)-1H-1,2,3-triazol-4-yl]-2,3,6,7-tetrahydro-1H-azepin-1-yl}prop-2-en-1-one] stands 78.1%.
Under `C=CC(=O)N1CCN(S(=O)(=O)CC)CC1` [3-D20, 1-[4-(ethanesulfonyl)piperazin-1-yl]prop-2-en-1-one] stands 106%.
On to `C=CC(=O)NC(c1nc(C)cs1)C1CC1` (centres unmarked) [3-D21, N-[cyclopropyl(4-methyl-1,3-thiazol-2-yl)methyl]prop-2-enamide], for which the viability at 48 h, 25 µM was determined as 74.9%.
As for `C=CC(=O)N1CCCc2c(OCC(N)=O)cccc21` [3-D22, 2-{[1-(prop-2-enoyl)-1,2,3,4-tetrahydroquinolin-5-yl]oxy}acetamide], the figure is 95.2%; as for `C=CC(=O)NC[C@@H]1CCCN1c1ccccc1` [3-E03, N-{[(2S)-1-phenylpyrrolidin-2-yl]methyl}prop-2-enamide], 60.1%.
Under `C=CC(=O)Nc1ccc(C(=O)N2CCC(C)(C)S(=O)(=O)CC2)cc1` [3-E04, N-[4-(7,7-dimethyl-1,1-dioxo-1lambda6,4-thiazepane-4-carbonyl)phenyl]prop-2-enamide] stands 78.6%; under `C=CC(=O)N1CCC(c2nc(C)no2)CC1` [3-E05, 1-[4-(3-methyl-1,2,4-oxadiazol-5-yl)piperidin-1-yl]prop-2-en-1-one], 49.7%; under `C=CC(=O)N1CCC(C(=O)N2CCOc3cc(F)ccc3C2)CC1` [3-E06, 1-[4-(8-fluoro-2,3,4,5-tetrahydro-1,4-benzoxazepine-4-carbonyl)piperidin-1-yl]prop-2-en-1-one], 67.9%.
Under `C=CC(=O)N1CCC(C(=O)NCCc2cc[nH]n2)CC1` [3-E07, 1-(prop-2-enoyl)-N-[2-(1H-pyrazol-3-yl)ethyl]piperidine-4-carboxamide] stands 34.2%.

The term viability denotes a read-out of living cells in per cent, often relative to untreated cells.
